This is an account of results in the Deep4Chem optical property database.

This data set is described as follows: photoluminescence quantum yield (fraction); solvent given as SMILES.
[1] abbreviates: in O=P(c1ccccc1)(c1ccccc1)c1ccccc1Oc1ccccc1P(=O)(c1ccccc1)c1ccccc1.

In turn, `CCN(CC)c1ccc2cc(-c3nc4cc(C(=O)Nc5ccccc5[N+](=O)[O-])ccc4o3)c(=O)oc2c1` returned a photoluminescence quantum yield (in ClCCl) of 0.38.
As for `Clc1ccc(/C=C/c2ccncn2)cc1`, under “in ClCCl”, the photoluminescence quantum yield was 0.01.
Turning to `N#CC(C#N)=Cc1ccc2c(c1)c1ccccc1n2-c1cc2ccccc2c2ccccc12`, the photoluminescence quantum yield amounted to 0.09 (in CC#N), 0.16 (in CCCCC), 0.16 (in Cc1ccccc1) and 0.04 (in ClCCl).
On to `CC(C)c1ccc2ccc3cccc4ccc1c2c34`, for which the photoluminescence quantum yield came out at 0.21 (in CCCCCC), 0.24 (in CO) and 0.41 (in ClCCl).
For `F[B-]1(F)OC(c2ccc(Br)cc2)=Cc2c3ccccc3cc[n+]21`, the photoluminescence quantum yield (in ClC(Cl)Cl) came out at 0.049.
Regarding `COc1ccc(-c2nc3c([nH]2)C2=CC(=O)S[C@]2(C)[C@@]2(C)SC(=O)C=C32)cc1`, the photoluminescence quantum yield (in CC#N) amounted to 0.17.
With `CC(C)(C)c1ccc2c(c1)c1cc(C(C)(C)C)ccc1n2-c1cccc(-c2nc(-c3cccc(P(=O)(c4ccccc4)c4ccccc4)c3)nc(-c3cccc(P(=O)(c4ccccc4)c4ccccc4)c3)n2)c1`, the photoluminescence quantum yield under setting [1] was 0.72.
In turn, `N#CC1N=c2cc3c4c(cccc4c2=NC1C#N)C(c1ccccc1)=C(c1ccccc1)O3` (centres undefined) showed a photoluminescence quantum yield (in ClCCl) of 0.17.
On to `COC(=O)/C(C#N)=c1\s/c(=c2/s/c(=C(/C#N)C(=O)OC)c3cc(-c4ccc(OC)cc4)sc23)c2sc(-c3ccc(OC)cc3)cc12`, for which, where the note is “in Cc1ccccc1”, the photoluminescence quantum yield was found to be 0.424.
`Brc1ccc(/C=C/c2cnc3ccccc3n2)cc1` showed a photoluminescence quantum yield (in ClCCl) of 0.02.
Turning to `C[Si](C)(c1cccc2ccccc12)[Si](C)(C)[Si](C)(C)[Si](C)(C)c1c2ccccc2cc2ccccc12`, the photoluminescence quantum yield came out at 0.65 (in C1CCCCC1) and 0.08 (in CC#N).
As to `Cc1ccc(C#Cc2ccc3ccc(=O)oc3c2)cc1`, the photoluminescence quantum yield (in CC#N) turned out to be 0.016.
Regarding `COc1ccc(-c2ccc(-c3c4c(nc5ccccc35)-c3cc5c(cc3CC4)-c3nc4ccccc4c(-c4ccc(-c6ccc(OC)cc6)cc4)c3CC5)cc2)cc1`, for the setting “in ClC(Cl)Cl”, the photoluminescence quantum yield amounted to 0.827.
Consider `CCOC(=O)c1sc(-c2ccc(-c3cc(C4CC4)c(C(=O)OCC)s3)s2)cc1C1CC1`, for which the photoluminescence quantum yield (in ClCCl) was 0.21.
With `O=C1c2cc(F)ccc2-c2cnccc21`, the photoluminescence quantum yield reads like this: (in CC#N) 0.015; (in CCCCCC) 0.0017; (in CCOC(C)=O) 0.02; (in Cc1ccccc1) 0.012; (in ClCCl) 0.018.
On to `CC(=O)Nc1ccc(S(=O)(=O)O)c(/N=N/c2c(O)c3ccccc3n(C)c2=O)c1`, for which the photoluminescence quantum yield (in CS(C)=O) amounted to 0.03.
For `Fc1cccc(C2=Cc3ccc4ccccc4[n+]3[B-](F)(F)O2)c1`, the photoluminescence quantum yield (in ClC(Cl)Cl) stood at 0.47.
With `CC1=CC(C)=[N+]2C1=C(c1c(-c3ccccn3)nc3ccccn13)c1c(C)cc(C)n1[B-]2(F)F`, for the setting “in ClCCl”, the photoluminescence quantum yield is 0.635.
Compound `COc1ccc(C2=C/C(=C\c3ccccc3)C(=O)O2)cc1OC` came in with a photoluminescence quantum yield (in C1COCCO1) of 0.004.
As to `COc1cc2oc(=O)c3c4ccc(C=O)cc4c4ccc5cccc6c(c1)c2c3c4c56`, where the note is “in C1CCOC1”, the photoluminescence quantum yield worked out at 0.459.
In the case of `c1ccc2c(c1)Oc1ccccc1N2c1ccc(-c2nnc(-c3ccc(N4c5ccccc5Oc5ccccc54)cc3)o2)cc1`, the photoluminescence quantum yield is, setting by setting: (in Cc1ccccc1) 0.431; under setting [1], 0.87.
For `CCCCCCOc1ccc(N(c2ccc(OCCCCCC)cc2)c2ccc(-c3sc(-c4ccc(N(c5ccc(OCCCCCC)cc5)c5ccc(OCCCCCC)cc5)cc4)c4nc(-c5ccc(C(=O)OC)cc5)c(-c5ccc(C(=O)OC)cc5)nc34)cc2)cc1`, the photoluminescence quantum yield runs as follows: (in CN(C)C=O) 0.021; (in ClC(Cl)Cl) 0.026.
Consider `CCCCCCC1(CCCCCC)c2cc(-c3ccc(-c4ccc(-c5ccc(-c6ccc7c(c6)C(CCCCCC)(CCCCCC)c6cc(-n8c9ccccc9c9ccccc98)ccc6-7)s5)c5nsnc45)s3)ccc2-c2ccc(-n3c4ccccc4c4ccccc43)cc21`, for which the photoluminescence quantum yield (in ClCCl) amounted to 0.39.
For `O=C(c1ccc(N(c2ccccc2)c2ccccc2)cc1)[C@H]1[C@H](c2ccc(F)cc2)C[C@](O)(c2ccccn2)C[C@]1(O)c1ccccn1`, the photoluminescence quantum yield was 0.4 (in C1CCOC1); 0.02 (in CC#N); 0.01 (in CCO); 0.34 (in CCOC(C)=O); 0.02 (in CN(C)C=O); 0.21 (in ClCCl). The photoluminescence quantum yield (in c1ccccc1) amounted to 0.74.
Consider `F[Si](c1ccccc1)(c1c2ccccc2cc2ccccc12)c1c2ccccc2cc2ccccc12`, for which the photoluminescence quantum yield (in C1CCOC1) was 0.17.
`c1ccc2c(c1)-c1ccccc1C21c2ccccc2-c2c1c1c3ccccc3ccc1c1ccccc21`: under “in Cc1ccccc1”, the photoluminescence quantum yield is 0.61.
For `O=C(c1sc(-c2ccc(-c3cc(-c4cccs4)c(C(=O)N4CCOCC4)s3)s2)cc1-c1cccs1)N1CCOCC1`, the photoluminescence quantum yield (in ClCCl) is 0.14.
In the case of `CC(C)(C)c1ccc(-c2c3ccccc3c3n2[B-](F)(F)[N+]2=Cc4c5ccccc5c(-c5ccc(C(C)(C)C)cc5)n4[B-](F)(F)[N+]2=C3)cc1`, the photoluminescence quantum yield amounted to 0.26 (in CC#N); 0.34 (in CCCCCC); 0.28 (in CN(C)C=O); 0.34 (in Cc1ccccc1); 0.34 (in ClCCl).
Consider `CC(C)(C)c1cc2cc(N(c3ccccc3)c3ccccc3)c3cc(C(C)(C)C)cc4cc(N(c5ccccc5)c5ccccc5)c(c1)c2c43`, for which the photoluminescence quantum yield (in CCCCCC) is 0.28.
In the case of `CN(C)c1ccc(-c2nc3c(c4c2-c2ccccc2CC4)-c2ccccc2CC3)cc1`, the photoluminescence quantum yield is 0.396 (in C1CCOC1); 0.182 (in CC#N); 0.05 (in CCCCCC); 0.164 (in CCOC(C)=O); 0.08 (in CO); 0.215 (in CS(C)=O). Besides, the photoluminescence quantum yield was 0.112 (in Cc1ccccc1) and 0.269 (in ClCCl).
Under “in CC#N”, `COC(=O)c1c(NC(C)(C)C)oc(-c2ccccc2)c1C(=O)OC` came in with a photoluminescence quantum yield of 0.1.
Where the note is “in CCOC(C)=O”, `CC(C)(C)OC(=O)n1ccc2c3ccc4cccc5ccc(cc21)c3c54` registered a photoluminescence quantum yield of 0.27.
Regarding `Cc1ccc(-c2[nH]c(=O)n3c2-c2ccccc2C3=O)c(O)c1`, the photoluminescence quantum yield runs as follows: (in CC#N) 0.51; (in CO) 0.14; (in ClCCl) 0.63.
`Nc1n[n+]([O-])c2cc(F)ccc2[n+]1[O-]`: the photoluminescence quantum yield reads like this: (in CC#N) 0.0077; (in O) 0.003.
As to `CCOC(=O)c1sc2nc(-c3ccccc3)c(C)c(C#N)c2c1N`, the photoluminescence quantum yield by setting is: (in C1COCCO1) 0.024; (in CC#N) 0.009; (in CCOC(C)=O) 0.027; (in ClC(Cl)Cl) 0.037; (in c1ccccc1) 0.047.
`C[Si](C)(C)C#Cc1c2c(=O)c3ccccc3c2c(C#C[Si](C)(C)C)c2c(=O)c3ccccc3c12`: the photoluminescence quantum yield (in ClC(Cl)Cl) was found to be 0.08.
Same read-out and setting: then `COc1ccc2c(c1)CCc1c(-c3ccccc3)c3n(c1-2)[B-](F)(F)[N+]1=c2ccc4ccccc4c2=C(c2ccccc2)C1=N3`, with 0.11.
`c1ccc2c(c1)c1ccccc1n2-c1ccc(-c2nnc(-c3ccc(-n4c5ccccc5c5ccccc54)cc3)o2)cc1` gave a photoluminescence quantum yield under setting [1] of 0.93.
